Results on two molecules are retold here after PubChem BioAssay AID1259407 (Chemical Carcinogenesis Research Information System (CCRIS), 2018).

Each structure is given as a SMILES string. Activity calls are given as the source filed them. No rule for the calls is given here.

For the series, the system named is CCRIS mutagenicity, Ames/micronucleus/aberration tests. The series is described as follows: CCRIS mutagenicity studies.
The mark [1] stands for this setting: Test System: AMES SALMONELLA TYPHIMURIUM, Strain/Indicator: TA100, Metabolic Activation: NONE, Method: STANDARD PLATE.

With `Cc1ccc(C(=O)c2cc(O)c(O)c([N+](=O)[O-])c2)cc1`, the mutagenic call (Test System: AMES SALMONELLA TYPHIMURIUM, Strain/Indicator: TA97, Metabolic Activation: NONE, Method: PREINCUBATION) is “inactive; negative”; the mutagenic call (Test System: AMES SALMONELLA TYPHIMURIUM, Strain/Indicator: TA97, Metabolic Activation: NONE, Method: STANDARD PLATE) is “inactive; negative”; the mutagenic call (Test System: AMES SALMONELLA TYPHIMURIUM, Strain/Indicator: TA97, Metabolic Activation: RAT, LIVER, S-9, PHENOBARBITAL AND BETA-NAPHTHOFLAVONE, Method: PREINCUBATION) is “inactive; negative”; the mutagenic call (Test System: AMES SALMONELLA TYPHIMURIUM, Strain/Indicator: TA97, Metabolic Activation: RAT, LIVER, S-9, PHENOBARBITAL AND BETA-NAPHTHOFLAVONE, Method: STANDARD PLATE) is “inactive; negative”; the mutagenic call (Test System: AMES SALMONELLA TYPHIMURIUM, Strain/Indicator: TA98, Metabolic Activation: NONE, Method: PREINCUBATION) is “inactive; negative”; the mutagenic call (Test System: AMES SALMONELLA TYPHIMURIUM, Strain/Indicator: TA98, Metabolic Activation: NONE, Method: STANDARD PLATE) is “inactive; negative”. The mutagenic call was “inactive; negative” (Test System: AMES SALMONELLA TYPHIMURIUM, Strain/Indicator: TA98, Metabolic Activation: RAT, LIVER, S-9, PHENOBARBITAL AND BETA-NAPHTHOFLAVONE, Method: PREINCUBATION); “inactive; negative” (Test System: AMES SALMONELLA TYPHIMURIUM, Strain/Indicator: TA98, Metabolic Activation: RAT, LIVER, S-9, PHENOBARBITAL AND BETA-NAPHTHOFLAVONE, Method: STANDARD PLATE); “inactive; negative” (Test System: AMES SALMONELLA TYPHIMURIUM, Strain/Indicator: TA100, Metabolic Activation: NONE, Method: PREINCUBATION); “inactive; negative” under setting [1]; “inactive; negative” (Test System: AMES SALMONELLA TYPHIMURIUM, Strain/Indicator: TA100, Metabolic Activation: RAT, LIVER, S-9, PHENOBARBITAL AND BETA-NAPHTHOFLAVONE, Method: PREINCUBATION); “inactive; negative” (Test System: AMES SALMONELLA TYPHIMURIUM, Strain/Indicator: TA100, Metabolic Activation: RAT, LIVER, S-9, PHENOBARBITAL AND BETA-NAPHTHOFLAVONE, Method: STANDARD PLATE). Also, the mutagenic call by setting is: (Test System: AMES SALMONELLA TYPHIMURIUM, Strain/Indicator: TA102, Metabolic Activation: NONE, Method: PREINCUBATION) “inactive; negative”; (Test System: AMES SALMONELLA TYPHIMURIUM, Strain/Indicator: TA102, Metabolic Activation: NONE, Method: STANDARD PLATE) “inactive; negative”; (Test System: AMES SALMONELLA TYPHIMURIUM, Strain/Indicator: TA102, Metabolic Activation: RAT, LIVER, S-9, PHENOBARBITAL AND BETA-NAPHTHOFLAVONE, Method: PREINCUBATION) “inactive; negative”; (Test System: AMES SALMONELLA TYPHIMURIUM, Strain/Indicator: TA102, Metabolic Activation: RAT, LIVER, S-9, PHENOBARBITAL AND BETA-NAPHTHOFLAVONE, Method: STANDARD PLATE) “inactive; negative”; (Test System: AMES SALMONELLA TYPHIMURIUM, Strain/Indicator: TA1535, Metabolic Activation: NONE, Method: PREINCUBATION) “inactive; negative”; (Test System: AMES SALMONELLA TYPHIMURIUM, Strain/Indicator: TA1535, Metabolic Activation: NONE, Method: STANDARD PLATE) “inactive; negative”. The mutagenic call (Test System: AMES SALMONELLA TYPHIMURIUM, Strain/Indicator: TA1535, Metabolic Activation: RAT, LIVER, S-9, PHENOBARBITAL AND BETA-NAPHTHOFLAVONE, Method: PREINCUBATION) was “inactive; negative”; the mutagenic call (Test System: AMES SALMONELLA TYPHIMURIUM, Strain/Indicator: TA1535, Metabolic Activation: RAT, LIVER, S-9, PHENOBARBITAL AND BETA-NAPHTHOFLAVONE, Method: STANDARD PLATE) is “inactive; negative”; the mutagenic call (Test System: AMES SALMONELLA TYPHIMURIUM, Strain/Indicator: TA1537, Metabolic Activation: NONE, Method: PREINCUBATION) is “inactive; negative”; the mutagenic call (Test System: AMES SALMONELLA TYPHIMURIUM, Strain/Indicator: TA1537, Metabolic Activation: NONE, Method: STANDARD PLATE) was “inactive; negative”; the mutagenic call (Test System: AMES SALMONELLA TYPHIMURIUM, Strain/Indicator: TA1537, Metabolic Activation: RAT, LIVER, S-9, PHENOBARBITAL AND BETA-NAPHTHOFLAVONE, Method: PREINCUBATION) is “inactive; negative”; the mutagenic call (Test System: AMES SALMONELLA TYPHIMURIUM, Strain/Indicator: TA1537, Metabolic Activation: RAT, LIVER, S-9, PHENOBARBITAL AND BETA-NAPHTHOFLAVONE, Method: STANDARD PLATE) was “inactive; negative”. The mutagenic call is, setting by setting: (Test System: AMES SALMONELLA TYPHIMURIUM, Strain/Indicator: TA1538, Metabolic Activation: NONE, Method: PREINCUBATION) “inactive; negative”; (Test System: AMES SALMONELLA TYPHIMURIUM, Strain/Indicator: TA1538, Metabolic Activation: NONE, Method: STANDARD PLATE) “inactive; negative”; (Test System: AMES SALMONELLA TYPHIMURIUM, Strain/Indicator: TA1538, Metabolic Activation: RAT, LIVER, S-9, PHENOBARBITAL AND BETA-NAPHTHOFLAVONE, Method: PREINCUBATION) “inactive; negative”; (Test System: AMES SALMONELLA TYPHIMURIUM, Strain/Indicator: TA1538, Metabolic Activation: RAT, LIVER, S-9, PHENOBARBITAL AND BETA-NAPHTHOFLAVONE, Method: STANDARD PLATE) “inactive; negative”; (Test System: CHINESE HAMSTER V-79, Strain/Indicator: V-79 (HPRT)/6-THIOGUANINE, Metabolic Activation: NONE, Method: SUSPENSION/PLATE) “inactive; negative”; (Test System: CHINESE HAMSTER V-79, Strain/Indicator: V-79 (HPRT)/6-THIOGUANINE, Metabolic Activation: RAT, LIVER, S-9, AROCLOR 1254, Method: SUSPENSION/PLATE) “inactive; negative”. Also, the mutagenic call (Test System: E. COLI, Strain/Indicator: WP2 UVRA, Metabolic Activation: NONE, Method: PREINCUBATION) was “inactive; negative”; the mutagenic call (Test System: E. COLI, Strain/Indicator: WP2 UVRA, Metabolic Activation: NONE, Method: STANDARD PLATE) was “inactive; negative”; the mutagenic call (Test System: E. COLI, Strain/Indicator: WP2 UVRA, Metabolic Activation: RAT, LIVER, S-9, PHENOBARBITAL AND BETA-NAPHTHOFLAVONE, Method: PREINCUBATION) is “inactive; negative”; the mutagenic call (Test System: E. COLI, Strain/Indicator: WP2 UVRA, Metabolic Activation: RAT, LIVER, S-9, PHENOBARBITAL AND BETA-NAPHTHOFLAVONE, Method: STANDARD PLATE) was “inactive; negative”; the mutagenic call (Test System: UDS RAT HEPATOCYTES, Strain/Indicator: THY INCORP, Metabolic Activation: NONE, Method: AUTORADIOGRAPHY) was “inactive; negative”.

As to `O=C1C=C(Cl)C(=O)C1(Cl)Cl`, the mutagenic call under setting [1] was “active; positive”.
